The test deals with xanthine oxidase (Homo sapiens (Human), UniProt P47989). The test can be described thus: Fluorescence-based xanthine oxidase activity assay. It counts as biochemical. To be noted: for inhibition of xanthine oxidase compared to allopurinol: statement in words.
The mark [1] stands for this setting: read-out: Xanthine Oxidase IC50.

Each structure is given as a SMILES string. pIC50: −log10 of the molar value. Where two headings read alike, the source gives them in different places.

xanthine oxidase, sequence (P47989 whole entry, species assumed): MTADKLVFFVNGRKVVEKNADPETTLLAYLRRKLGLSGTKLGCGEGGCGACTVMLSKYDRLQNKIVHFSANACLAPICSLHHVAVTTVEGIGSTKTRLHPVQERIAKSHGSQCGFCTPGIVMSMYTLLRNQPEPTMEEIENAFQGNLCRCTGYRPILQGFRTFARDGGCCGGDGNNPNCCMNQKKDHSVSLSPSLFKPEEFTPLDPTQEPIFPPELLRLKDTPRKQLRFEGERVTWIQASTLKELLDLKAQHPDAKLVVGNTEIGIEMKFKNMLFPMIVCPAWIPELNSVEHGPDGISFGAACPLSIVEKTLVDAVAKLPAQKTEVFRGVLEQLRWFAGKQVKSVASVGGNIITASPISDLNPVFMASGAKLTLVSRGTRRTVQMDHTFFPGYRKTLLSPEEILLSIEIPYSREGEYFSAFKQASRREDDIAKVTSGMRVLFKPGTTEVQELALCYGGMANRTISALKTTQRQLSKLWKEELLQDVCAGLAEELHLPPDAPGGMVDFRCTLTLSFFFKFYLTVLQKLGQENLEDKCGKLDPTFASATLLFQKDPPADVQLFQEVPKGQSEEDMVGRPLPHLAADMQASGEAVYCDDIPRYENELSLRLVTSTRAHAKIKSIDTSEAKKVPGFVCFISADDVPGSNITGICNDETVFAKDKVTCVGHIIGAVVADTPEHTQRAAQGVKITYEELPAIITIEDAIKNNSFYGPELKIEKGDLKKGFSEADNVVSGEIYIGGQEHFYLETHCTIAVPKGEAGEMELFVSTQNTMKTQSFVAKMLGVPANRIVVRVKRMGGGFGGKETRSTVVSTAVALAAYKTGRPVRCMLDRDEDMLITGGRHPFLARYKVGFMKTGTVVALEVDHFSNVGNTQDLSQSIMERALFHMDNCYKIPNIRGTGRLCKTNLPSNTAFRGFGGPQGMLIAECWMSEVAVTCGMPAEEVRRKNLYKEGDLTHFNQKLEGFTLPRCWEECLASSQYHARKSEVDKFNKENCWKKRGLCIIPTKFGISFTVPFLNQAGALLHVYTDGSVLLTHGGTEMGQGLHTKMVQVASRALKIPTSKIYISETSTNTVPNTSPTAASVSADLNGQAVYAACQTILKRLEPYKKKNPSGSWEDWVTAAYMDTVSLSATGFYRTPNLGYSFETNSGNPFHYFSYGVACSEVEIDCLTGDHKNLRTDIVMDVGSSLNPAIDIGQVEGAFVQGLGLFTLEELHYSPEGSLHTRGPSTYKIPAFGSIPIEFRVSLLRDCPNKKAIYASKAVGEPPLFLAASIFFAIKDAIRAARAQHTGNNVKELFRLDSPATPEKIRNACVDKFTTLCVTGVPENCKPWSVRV

As to `O=C(Nc1ccc2[nH]c(=O)[nH]c2c1)c1c(O)[nH]c(=O)[nH]c1=O` [Formula (IVa), 6-hydroxy-2,4-dioxo-N-(2-oxo-2,3-dihydro-1H-benzo[d]imidazol-5-yl)-1,2,3,4-tetrahydropyrimidine-5-carboxamide], the negative-log IC50 (pIC50) under setting [1] was 5.07.

For the compound `N/N=C(/Nc1ccc(-c2cnn[nH]2)cc1)c1c(O)[nH]c(=O)[nH]c1=O` [Formula (Id), (E)-N-(4-(1H-1,2,3-triazol-5-yl)phenyl)-2,4,6-trioxohexahydropyrimidine-5-carbohydrazonamide], the pIC50 is below 3.52.

As to `O=C(NO)c1cc(NC(=O)c2c(O)[nH]c(=O)[nH]c2=O)ccn1` [Formula (VIIIb), 6-hydroxy-N-(2-(hydroxycarbamoyl)pyridin-4-yl)-2,4-dioxo-1,2,3,4-tetrahydropyrimidine-5-carboxamide], under setting [1], the negative logarithm of the IC50 (pIC50) is 4.13.

In turn, `O=C(Nc1c(O)[nH]c(=O)[nH]c1=O)c1ccc(-c2cnn[nH]2)cc1` [Formula (Il), 4-(1H-1,2,3-triazol-4-yl)-N-(2,4,6-trioxohexahydropyrimidin-5-yl)benzamide] showed a negative logarithm of the IC50 (pIC50) of 5.20.

Consider `Nc1[nH]c(=O)[nH]c(=O)c1C(=O)Nc1ccc(-c2c[nH]nn2)cc1` [Formula (Ik), N-(4-(1H-1,2,3-triazol-5-yl)phenyl)-6-amino-2,4-dioxo-1,2,3,4-tetrahydropyrimidine-5-carboxamide], for which the “inhibition of xanthine oxidase compared to allopurinol” value (shortened to “inhibition … compared to allopurinol”) is reported as “particularly potent inhibitors”. Under setting [1], the pIC50 was 5.89.

Turning to `Cn1c(O)c(C(=N)Nc2ccc(-c3cnn[nH]3)cc2)c(=O)n(C)c1=O` [Formula (If), N-(4-(1H-1,2,3-triazol-5-yl)phenyl)-6-hydroxy-1,3-dimethyl-2,4-dioxo-1,2,3,4-tetrahydropyrimidine-5-carboximidamide], the “inhibition … compared to allopurinol” value is “particularly potent inhibitors”. The pIC50 under setting [1] was 6.70.

For `O=c1nc2[nH]n(-c3ccc(-c4cnn[nH]4)cc3)c(=O)c2c(O)[nH]1` [Formula (VIIa), 2-(4-(1H-1,2,3-triazol-5-yl)phenyl)-4,6-dihydroxy-1H-pyrazolo[3,4-d]pyrimidin-3(2H)-one], under setting [1], the negative-log IC50 (pIC50) was 5.15.

Turning to `Cn1c(=O)[nH]c(O)c(C(=N)Nc2ccc(-c3cnn[nH]3)cc2)c1=O` [Formula (Ih)], the pIC50 is 6.13 and the “inhibition … compared to allopurinol” value is reported as “particularly potent inhibitors”.

Turning to `O=C1NS(=O)(=O)c2cc(NC(=O)c3c(O)[nH]c(=O)[nH]c3=O)ccc21` [Formula (IIIa), N-(1,1-dioxido-3-oxo-2,3-dihydrobenzo[d]isothiazol-6-yl)-2,4,6-trihydroxypyrimidine-5-carboxamide], the pIC50 under setting [1] was 5.35.

Regarding `COc1nc(O)c(C(=O)Nc2ccc(-c3cnn[nH]3)cc2)c(=O)[nH]1` [Formula (IIb), N-(4-(3H-1,2,3-triazol-4-yl)phenyl)-4-hydroxy-2-methoxy-6-oxo-1,6-dihydropyrimidine-5-carboxamide], the “inhibition … compared to allopurinol” value is on record as “particularly potent inhibitors”. The pIC50 under setting [1] was 6.25.

For the compound `O=C(Nc1ccc(-c2noc(C(F)(F)F)n2)cc1)c1c(O)[nH]c(=O)[nH]c1=O` [Formula (In), 6-hydroxy-2,4-dioxo-N-(4-(5-(trifluoromethyl)-1,2,4-oxadiazol-3-yl)phenyl)-1,2,3,4-tetrahydropyrimidine-5-carboxamide], the pIC50 was 3.53.

Consider `O=C(Nc1nc(O)c2cn[nH]c2n1)c1c(O)[nH]c(=O)[nH]c1=O` [Formula (Va), 6-hydroxy-N-(4-hydroxy-1H-pyrazolo[3,4-d]pyrimidin-6-yl)-2,4-dioxo-1,2,3,4-tetrahydropyrimidine-5-carboxamide], for which the negative logarithm of the IC50 (pIC50) under setting [1] was 4.44.

Take `O=c1[nH]c(O)c(/C(=N\O)Nc2ccc(-c3cnn[nH]3)cc2)c(=O)[nH]1` [Formula (Ic), (E)-N-(4-(1H-1,2,3-triazol-5-yl)phenyl)-N′-hydroxy-2,4,6-trioxohexahydro-pyrimidine-5-carboximidamide]: the negative logarithm of the IC50 (pIC50) was 5.92.

For `O=C(NC1CCC(c2c[nH]nn2)CC1)c1c(O)[nH]c(=O)[nH]c1=O` (stereo not shown) [Formula (Ii)], the negative-log IC50 (pIC50) under setting [1] is below 3.53.

Take `Cn1c(=O)[nH]c(O)c(C(=O)Nc2ccc(-c3cnn[nH]3)cc2)c1=O` [Formula (Ig), N-(4-(1H-1,2,3-triazol-4-yl)phenyl)-2,4-dihydroxy-1-methyl-6-oxo-1,6-dihydropyrimidine-5-carboxamide]: the “inhibition … compared to allopurinol” value is reported as “particularly potent inhibitors”. Also, under setting [1], the pIC50 is 6.26.

Turning to `O=C(NC1CCC(O)(c2c[nH]nn2)CC1)c1c(O)[nH]c(=O)[nH]c1=O` (stereo not shown) [Formula (Ij), 6-hydroxy-N-(4-hydroxy-4-(1H-1,2,3-triazol-4-yl)cyclohexyl)-2,4-dioxo-1,2,3,4-tetrahydropyrimidine-5-carboxamide], the negative-log IC50 (pIC50) under setting [1] was 4.88.

Take `O=C(Nc1ccc(-c2[nH]nnc2-c2ccccc2)cc1)c1c(O)[nH]c(=S)[nH]c1=O` [Formula (Im), 6-hydroxy-4-oxo-N-(4-(4-phenyl-1H-1,2,3-triazol-5-yl)phenyl)-2-thioxo-1,2,3,4-tetrahydropyrimidine-5-carboxamide]: the pIC50 under setting [1] is 4.74.

In turn, `CS/C(=N\c1ccc(-c2cnn[nH]2)cc1)c1c(O)[nH]c(=O)[nH]c1=O` [Formula (Ib), 5-(((4-(1H-1,2,3-triazol-5-yl)phenyl)amino)(methylthio)methylene)pyrimidine-2,4,6(1H,3H,5H)-trione] had a pIC50 of 4.27.

On to `CC(C)Sc1nc(O)c(C(=O)Nc2ccc(-c3c[nH]nn3)cc2)c(=O)[nH]1` [Formula (IId), N-(4-(1H-1,2,3-triazol-5-yl)phenyl)-4-hydroxy-2-(isopropylthio)-6-oxo-1,6-dihydropyrimidine-5-carboxamide], for which the “inhibition … compared to allopurinol” value is given as “particularly potent inhibitors”.

For `O=C(Nc1ccc2c(c1)C1(OCCO1)C(=O)N2)c1c(O)[nH]c(=O)[nH]c1=O` [Formula (IVc), 6-Hydroxy-2,4-dioxo-N-(2′-oxospiro[[1,3]dioxolane-2,3′-indolin]-5′-yl)-1,2,3,4-tetrahydropyrimidine-5-carboxamide], the pIC50 was below 3.52.

In the case of `N=C(Nc1ccc(-c2cnn[nH]2)cc1)c1c(O)[nH]c(=O)[nH]c1=O` [Formula (Ia), N-(4-(1H-1,2,3-triazol-4-yl)phenyl)-6-hydroxy-2,4-dioxo-1,2,3,4-tetrahydropyrimidine-5-carboximidamide], the “inhibition … compared to allopurinol” value is recorded as “particularly potent inhibitors”. The negative-log IC50 (pIC50) under setting [1] is 6.60.

In the case of `O=C(NO)c1ccc(NC(=O)c2c(O)[nH]c(=O)[nH]c2=O)cc1` [Formula (VIIIa), 6-hydroxy-N-(4-(hydroxycarbamoyl)phenyl)-2,4-dioxo-1,2,3,4-tetrahydropyrimidine-5-carboxamide], the negative logarithm of the IC50 (pIC50) under setting [1] is 4.76.

Take `Cn1c(O)c(C(=O)Nc2ccc(-c3cnn[nH]3)cc2)c(=O)n(C)c1=O` [Formula (Ie), N-(4-(1H-1,2,3-triazol-4-yl)phenyl)-6-hydroxy-1,3-dimethyl-2,4-dioxo-1,2,3,4-tetrahydropyrimidine-5-carboxamide]: the “inhibition … compared to allopurinol” value is listed as “particularly potent inhibitors”. The pIC50 under setting [1] was 5.80.

Regarding `O=C1Nc2ccc(NC(=O)c3c(O)[nH]c(=O)[nH]c3=O)cc2C1=O` [Formula (IVb), N-(2,3-dioxoindolin-5-yl)-6-hydroxy-2,4-dioxo-1,2,3,4-tetrahydropyrimidine-5-carboxamide], under setting [1], the pIC50 is below 3.52.

Regarding `O=c1[nH]c(=O)c2c(Nc3ccc(-c4cnn[nH]4)cc3)n[nH]c2[nH]1` [Formula (VIb), 3-((4-(1H-1,2,3-triazol-5-yl)phenyl)amino)-1H-pyrazolo[3,4-d]pyrimidine-4,6(5H,7H)-dione], the “inhibition … compared to allopurinol” value is recorded as “particularly potent inhibitors”. Besides, the negative-log IC50 (pIC50) under setting [1] is 6.85.

Turning to `Cn1c(=O)c2c(Nc3ccc(-c4cnn[nH]4)cc3)n[nH]c2n(C)c1=O` [Formula (VIc), 3-((4-(1H-1,2,3-triazol-5-yl)phenyl)amino)-5,7-dimethyl-1H-pyrazolo[3,4-d]pyrimidine-4,6(5H,7H)-dione], the pIC50 under setting [1] is 5.60.
